Measured values published in ChEMBL document CHEMBL1147488, “Methanesulfonamide group at position-4 of the C-5-phenyl ring of 1,5-diarylpyrazole affords a potent class of cyclooxygenase-2 (COX-2) inhibitors” (Bioorg Med Chem Lett, 2004).

Legend:
[1] = biological target: T1, Prostaglandin G/H synthase 2 (Homo sapiens) (UniProt P35354); conditions: Sf9; at 10 µM;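 further: in vitro assay on recombinant human COX-2 produced in baculovirus-infected Sf9 insect cells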
T1 sequence (whole entry): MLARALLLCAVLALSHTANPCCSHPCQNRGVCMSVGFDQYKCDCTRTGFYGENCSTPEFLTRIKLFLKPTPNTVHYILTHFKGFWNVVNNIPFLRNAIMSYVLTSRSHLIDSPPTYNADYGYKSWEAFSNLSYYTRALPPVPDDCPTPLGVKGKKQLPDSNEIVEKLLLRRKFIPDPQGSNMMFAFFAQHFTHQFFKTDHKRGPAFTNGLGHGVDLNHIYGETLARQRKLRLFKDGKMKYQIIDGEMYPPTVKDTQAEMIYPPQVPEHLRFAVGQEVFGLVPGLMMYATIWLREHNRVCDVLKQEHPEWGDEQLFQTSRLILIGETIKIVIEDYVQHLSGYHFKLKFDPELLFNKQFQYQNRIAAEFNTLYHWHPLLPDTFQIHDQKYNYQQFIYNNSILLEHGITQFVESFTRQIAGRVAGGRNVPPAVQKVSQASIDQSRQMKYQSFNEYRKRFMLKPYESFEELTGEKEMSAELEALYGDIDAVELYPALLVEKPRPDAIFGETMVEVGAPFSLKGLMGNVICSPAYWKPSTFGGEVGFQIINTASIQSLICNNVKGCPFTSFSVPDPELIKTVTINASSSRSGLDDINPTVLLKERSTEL
Description: In vitro inhibitory activity against human recombinant prostaglandin G/H synthase 2 (COX-2) at 10 uM expressed in sf-9 cells infected with baculovirus

[2] = biological target: T2, Prostaglandin G/H synthase 1 (Ovis aries) (UniProt P05979); conditions: at 10 µM
T2 sequence (whole entry): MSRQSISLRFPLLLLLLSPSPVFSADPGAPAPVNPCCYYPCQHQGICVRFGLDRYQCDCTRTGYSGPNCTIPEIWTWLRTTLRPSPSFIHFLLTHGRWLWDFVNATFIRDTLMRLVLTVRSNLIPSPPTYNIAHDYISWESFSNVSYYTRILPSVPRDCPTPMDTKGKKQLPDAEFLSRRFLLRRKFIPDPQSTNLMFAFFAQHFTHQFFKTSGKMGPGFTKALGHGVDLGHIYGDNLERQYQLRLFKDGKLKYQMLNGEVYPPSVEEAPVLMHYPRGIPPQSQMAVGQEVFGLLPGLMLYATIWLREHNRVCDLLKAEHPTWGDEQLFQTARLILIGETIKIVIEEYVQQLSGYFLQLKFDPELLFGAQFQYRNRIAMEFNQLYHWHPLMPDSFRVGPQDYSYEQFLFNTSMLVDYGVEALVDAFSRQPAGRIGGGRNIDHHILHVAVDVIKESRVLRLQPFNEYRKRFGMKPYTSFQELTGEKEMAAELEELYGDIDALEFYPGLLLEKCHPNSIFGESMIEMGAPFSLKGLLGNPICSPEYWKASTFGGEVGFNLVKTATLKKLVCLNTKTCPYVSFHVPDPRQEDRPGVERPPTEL
Description: In vitro inhibitory activity against prostaglandin G/H synthase 1 (COX-1) from the microsomal fraction of ram seminal vesicles at 10 uM concentration

[3] = biological target: T3, Prostaglandin G/H synthase 1 (Ovis aries, UniProt P05979); test: In vitro inhibitory activity against prostaglandin G/H synthase 1 from the microsomal fraction of ram seminal vesicles
T3 sequence (P05979 whole entry): T2 sequence (whole entry)

SMILES	inhibition [1] [%]	inhibition [2] [%]	IC50 [3] [µM]
CS(=O)(=O)Nc1ccc(-c2cc(C(F)F)nn2-c2ccccc2Cl)cc1	22	66	
CCCC(=O)N(c1ccc(-c2cc(C(F)(F)F)nn2-c2ccc(Cl)cc2)cc1)S(C)(=O)=O	62	0	
CS(=O)(=O)Nc1ccc(-c2cc(C(F)F)nn2-c2cccc(F)c2)cc1	67	97	
CS(=O)(=O)Nc1ccc(-c2cc(C(F)(F)F)nn2-c2ccc(Br)cc2)cc1	100	88	4.9
CS(=O)(=O)Nc1ccc(-c2cc(C(F)F)nn2-c2ccc(Cl)cc2)cc1	100	0	63
CC(=O)N(c1ccc(-c2cc(C(F)(F)F)nn2-c2ccc(Cl)cc2)cc1)S(C)(=O)=O	63	0	
CS(=O)(=O)Nc1ccc(-c2cc(C(F)(F)F)nn2-c2ccccc2F)cc1	89	97	
CN(C)c1ccc(-n2nc(C(F)(F)F)cc2-c2ccc(NS(C)(=O)=O)cc2)cc1	100	85	3.4
Cc1cc(-c2ccc(NS(C)(=O)=O)cc2)n(-c2ccc(F)cc2)n1	25	0	
CS(=O)(=O)Nc1ccc(-c2cc(C(F)(F)F)nn2-c2cccc(Cl)c2)cc1	3	96	
CS(=O)(=O)Nc1ccc(-c2cc(C(F)(F)F)nn2-c2ccc([N+](=O)[O-])cn2)cc1	13	0	
CS(=O)(=O)Nc1ccc(-c2cc(C(F)F)nn2-c2ccccc2F)cc1	89	90	
CS(=O)(=O)Nc1ccc(-c2cc(C(F)F)nn2-c2ccc(F)c(F)c2)cc1	36	11	
CS(=O)(=O)N(c1ccc(-c2cc(C(F)(F)F)nn2-c2ccc(Cl)cc2)cc1)S(C)(=O)=O	13	14	
CC(=O)Nc1ccc(-c2cc(C(F)(F)F)nn2-c2ccc(Br)cc2)cc1	87	100	3.5
CC(=O)N(c1ccc(-c2cc(C(F)F)nn2-c2ccc(Cl)cc2)cc1)S(C)(=O)=O	17	66	
CS(=O)(=O)Nc1ccc(-c2cc(C(F)(F)F)nn2-c2cccc(F)c2)cc1	70	49	
CS(=O)(=O)Nc1ccc(-c2cc(C(F)(F)F)nn2-c2ccc(Cl)c(Cl)c2)cc1	70	10	
CNc1ccc(-n2nc(C(F)(F)F)cc2-c2ccc(NS(C)(=O)=O)cc2)cc1	42	14	
Cc1cc(-c2ccc(NS(C)(=O)=O)cc2)n(-c2ccc([N+](=O)[O-])cn2)n1	13	0	

More lines, now with the values ahead:

inhibition [1] [%]	inhibition [2] [%]	IC50 [3] [µM]	SMILES
7	34		Cc1cc(-c2ccc(NS(C)(=O)=O)cc2)n(-c2ccccc2)n1
42	100		CCCC(=O)N(c1ccc(-c2cc(C(F)F)nn2-c2ccc(Cl)cc2)cc1)S(C)(=O)=O
31	22		CS(=O)(=O)Nc1ccc(-c2cc(C(F)F)nn2-c2ccccc2)cc1
65	6	20.3	CS(=O)(=O)Nc1ccc(-c2cc(C(F)(F)F)nn2-c2ccc(F)cc2)cc1
100	0	85.3	CS(=O)(=O)Nc1ccc(-c2cc(C(F)(F)F)nn2-c2ccccc2)cc1
65	18		CCC(=O)N(c1ccc(-c2cc(C(F)(F)F)nn2-c2ccc(Cl)cc2)cc1)S(C)(=O)=O
0	34		CS(=O)(=O)Nc1ccc(-c2cc(C(F)(F)F)nn2-c2ccc([N+](=O)[O-])cc2)cc1
62	22		CS(=O)(=O)Nc1ccc(-c2cc(C(F)F)nn2-c2ccc(F)cc2)cc1
100	25	15.6	CS(=O)(=O)Nc1ccc(-c2cc(C(F)(F)F)nn2-c2ccc(Cl)cc2)cc1
100	10	63	Cc1cc(-c2ccc(NS(C)(=O)=O)cc2)n(-c2ccc(Br)cc2)n1
70	0		Cc1ccc(S(=O)(=O)Nc2ccc(-c3cc(C(F)(F)F)nn3-c3ccc(Cl)cc3)cc2)cc1
69	22	31.6	CS(=O)(=O)Nc1ccc(-c2cc(C(F)(F)F)nn2-c2ccc(N)cc2)cc1
0	40		Cc1cc(-c2ccc(NS(C)(=O)=O)cc2)n(-c2ccc([N+](=O)[O-])cc2)n1
71	43		CS(=O)(=O)Nc1ccc(-c2cc(C(F)F)nn2-c2ccc(Cl)c(Cl)c2)cc1
0	59		CC(=O)Nc1ccc(-c2cc(C(F)(F)F)nn2-c2ccc(S(N)(=O)=O)cc2CO)cc1
59	32		CS(=O)(=O)Nc1ccc(-c2cc(C(F)(F)F)nn2-c2ccc(F)c(F)c2)cc1
12	42		CS(=O)(=O)Nc1ccc(-c2cc(C(F)(F)F)nn2-c2ccc(S(N)(=O)=O)cc2CO)cc1
0	100		CS(=O)(=O)Nc1ccc(-c2cc(C(F)F)nn2-c2ccc(S(N)(=O)=O)cc2CO)cc1
80	9	13.3	CC(=O)Nc1ccc(-c2cc(C)nn2-c2ccc(Br)cc2)cc1
88	0	100	Cc1cc(-c2ccc(NS(C)(=O)=O)cc2)n(-c2ccc(Cl)cc2)n1
36	100		CCC(=O)N(c1ccc(-c2cc(C(F)F)nn2-c2ccc(Cl)cc2)cc1)S(C)(=O)=O
